The supplement of paper PMC10307832

Legend:
Test in all cases: relative viability (nuclei count vs DMSO), 5 days (fraction); higher = more cells survive
Vismodegib + Tozasertib = compound: CS(=O)(=O)c1ccc(C(=O)Nc2ccc(Cl)c(-c3ccccn3)c2)c(Cl)c1 [Vismodegib] + Cc1cc(Nc2cc(N3CCN(C)CC3)nc(Sc3ccc(NC(=O)C4CC4)cc3)n2)n[nH]1 [Tozasertib] (partner 0.1 µM)
Summary of the method: (§1)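 For relative viability, nuclei counts in treated wells were divided by those in vehicle wells. Lung cancer cell lines had been pin-tool dosed in 1536-well plates the day after seeding and cultured for 5 days, then fixed and stained in one step (final 0.05% Triton X-100, 1% formaldehyde, 1 ug/ml Hoechst) and imaged at 4×. Doses were one drug alone or a fixed anchor-drug dose plus five library-drug doses (not always all listed) in √10 steps, and values are duplicate-plate medians.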

[1] = compound: N#CC[C@H](C1CCCC1)n1cc(-c2ncnc3[nH]ccc23)cn1 [Ruxolitinib] + CC(=O)c1c(C)c2cnc(Nc3ccc(N4CCNCC4)cn3)nc2n(C2CCCC2)c1=O [Palbociclib] (partner 0.5 µM)
Summary of the method: as §1

Ruxolitinib + Alpelisib = compound: N#CC[C@H](C1CCCC1)n1cc(-c2ncnc3[nH]ccc23)cn1 [Ruxolitinib] + Cc1nc(NC(=O)N2CCC[C@H]2C(N)=O)sc1-c1ccnc(C(C)(C)C(F)(F)F)c1 [Alpelisib] (partner 2 µM)
Summary of the method: as §1

Ruxolitinib + Decitabine = compound: N#CC[C@H](C1CCCC1)n1cc(-c2ncnc3[nH]ccc23)cn1 [Ruxolitinib] + Nc1ncn([C@H]2C[C@H](O)[C@@H](CO)O2)c(=O)n1 [Decitabine] (partner 2 µM)
Summary of the method: as §1

Cell Line | relative viability (Vismodegib + Tozasertib; first compound 0.08 µM) | relative viability (Vismodegib + Tozasertib; first compound 0.253 µM) | relative viability (Vismodegib + Tozasertib; first compound 0.8 µM) | relative viability (Vismodegib + Tozasertib; first compound 2.53 µM) | relative viability (Vismodegib + Tozasertib; first compound 8 µM) | relative viability ([1]; first compound 0.08 µM) | relative viability ([1]; first compound 0.253 µM) | relative viability ([1]; first compound 0.8 µM) | relative viability ([1]; first compound 2.53 µM) | relative viability ([1]; first compound 8 µM) | relative viability (Ruxolitinib + Alpelisib; first compound 0.08 µM) | relative viability (Ruxolitinib + Alpelisib; first compound 0.253 µM) | relative viability (Ruxolitinib + Alpelisib; first compound 0.8 µM) | relative viability (Ruxolitinib + Alpelisib; first compound 2.53 µM) | relative viability (Ruxolitinib + Alpelisib; first compound 8 µM) | relative viability (Ruxolitinib + Decitabine; first compound 0.08 µM) | relative viability (Ruxolitinib + Decitabine; first compound 0.253 µM) | relative viability (Ruxolitinib + Decitabine; first compound 0.8 µM) | relative viability (Ruxolitinib + Decitabine; first compound 2.53 µM) | relative viability (Ruxolitinib + Decitabine; first compound 8 µM)
LXF-289 | 0.22 | 0.185 | 0.2 | 0.224 | 0.213 | 0.539 | 0.598 | 0.626 | 0.599 | 0.565 | 1.01 | 1 | 1.04 | 0.948 | 0.815 | 0.369 | 0.426 | 0.353 | 0.363 | 0.371
NCI-H460 | 0.55 | 0.447 | 0.377 | 0.367 | 0.298 | 0.173 | 0.159 | 0.165 | 0.0961 | 0.155 | 0.567 | 0.389 | 0.567 | 0.398 | 0.306 | 0.451 | 0.408 | 0.576 | 0.28 | 0.388
NCI-H2023 | 0.356 | 0.341 | 0.348 | 0.315 | 0.227 | 0.42 | 0.4 | 0.361 | 0.387 | 0.397 | 0.617 | 0.56 | 0.595 | 0.489 | 0.6 | 0.214 | 0.264 | 0.267 | 0.218 | 0.271
SK-LU-1 | 0.269 | 0.348 | 0.295 | 0.347 | 0.361 | 0.426 | 0.416 | 0.421 | 0.374 | 0.336 | 1.18 | 1.05 | 1.11 | 0.823 | 0.623 | 0.547 | 0.693 | 0.755 | 0.522 | 0.622
NCI-H1734 | 0.249 | 0.281 | 0.267 | 0.263 | 0.263 | 0.374 | 0.299 | 0.337 | 0.345 | 0.354 | 0.68 | 0.579 | 0.798 | 0.623 | 0.667 | 0.512 | 0.485 | 0.613 | 0.423 | 0.494
PC-3 [JPC-3] | 0.932 | 0.87 | 0.933 | 0.852 | 0.873 |  | 0.596 | 0.579 | 0.566 | 0.553 | 0.763 | 1.05 | 1.1 | 0.991 | 0.932 |  | 0.856 | 0.899 | 0.754 | 0.718
HCC-827 | 0.42 | 0.419 | 0.432 | 0.392 | 0.423 |  | 0.275 | 0.408 | 0.366 | 0.411 |  | 0.679 | 0.72 | 0.794 | 0.887 |  | 0.325 | 0.364 | 0.253 | 0.305
NCI-H2405 | 0.705 | 0.733 | 0.7 | 0.709 | 0.765 | 0.52 | 0.514 | 0.589 | 0.295 | 0.389 |  | 0.715 | 0.984 | 0.416 | 0.465 | 0.765 | 0.786 | 0.792 | 0.682 | 0.424
HOP-62 | 0.307 | 0.327 | 0.345 | 0.343 | 0.332 | 0.454 | 0.451 | 0.45 | 0.435 | 0.411 |  | 0.813 | 1.05 | 0.96 | 0.723 | 0.197 | 0.258 | 0.227 | 0.208 | 0.19
LCLC-97TM1 | 0.22 | 0.284 | 0.218 | 0.239 | 0.273 | 0.235 | 0.185 | 0.213 | 0.192 | 0.213 | 0.215 | 0.204 | 0.275 | 0.235 | 0.327 | 0.221 | 0.242 | 0.22 | 0.265 | 0.222
NCI-H3122 | 0.399 | 0.382 | 0.343 | 0.384 | 0.373 | 0.182 | 0.228 | 0.208 | 0.166 | 0.191 | 0.807 | 0.786 | 0.851 | 0.556 | 0.617 | 0.47 | 0.387 | 0.429 | 0.302 | 0.389
PC-14 | 0.554 | 0.606 | 0.556 | 0.539 | 0.547 |  | 0.546 | 0.595 | 0.46 | 0.304 |  | 0.868 | 0.902 | 0.879 | 0.78 |  | 0.282 | 0.207 | 0.153 | 0.156
NCI-H2170 | 0.733 | 0.664 | 0.673 | 0.675 | 0.743 | 0.382 | 0.39 | 0.412 | 0.359 | 0.407 | 0.891 | 0.857 | 0.753 | 0.821 | 0.737 | 0.499 | 0.436 | 0.496 | 0.425 | 0.427
HCC-366 | 0.11 | 0.106 | 0.0997 | 0.0832 | 0.0622 | 0.417 | 0.441 | 0.389 | 0.365 | 0.19 | 0.349 | 0.322 | 0.366 | 0.36 | 0.46 | 0.361 | 0.321 | 0.318 | 0.24 | 0.275
HARA | 0.124 | 0.126 | 0.112 | 0.097 | 0.0937 | 0.301 | 0.273 | 0.286 | 0.228 | 0.253 | 0.862 | 0.817 | 0.785 | 0.697 | 0.857 | 0.63 | 0.472 | 0.631 | 0.565 | 0.489
COR-L 105 | 0.357 | 0.335 | 0.25 | 0.374 | 0.391 |  | 0.386 | 0.387 | 0.392 | 0.365 | 0.771 | 1.03 | 0.84 | 0.86 | 0.718 |  | 0.57 | 0.656 | 0.659 | 0.58
NCI-H1395 | 0.823 | 0.771 | 0.71 | 0.667 | 0.81 | 0.596 | 0.555 | 0.674 | 0.636 | 0.572 |  | 1.27 | 1.21 | 1.02 | 0.892 | 0.698 | 0.697 | 0.77 | 0.69 | 0.686
